# Reference: US20140057895A1, “INDAZOLE- AND PYRROLOPYRIDINE-DERIVATIVE AND PHARMACEUTICAL USE THEREOF” (priority 2011, published 2014)
# Values joined by “and” are separate entries in the source; they are usually repeats but may differ in a detail not shown here. Identical values can stand only once. Marks after values point to notes of the source that are not given here.
# Key:
# [1] = system: scopolamine and MK801-induced cognitive impairment; experiment: Example 5: Y-maze test, scopolamine and MK801-induced deficits, co-administration with donepezil (Table 102); format: in vivo, ddY mouse; conditions: Donepezil 10 mg/kg, p.o. alone
# Excerpt: (§1) Thus, scopolamine-induced cognitive impairment model, one of the AD-like model, has been used to predict pharmacodynamic signals of putative procognitive compounds, utilizing the acetylcholinesterase inhibitor donepezil for illustration (See, Citations 1 and 2). The present inventors investigated the effect of each compound on reversal of scopolamine-induced deficits in performance of Y-maze test in mice, and they also investigated adjunctive effect of compounds with donepezil on reversal of deficits induced by scopolamine and MK801 in mice.
# (§2) Used animal: ddY mouse (SLC)
# (§3) In the experiments, the mice were grouped in the same way using Stat Preclinica (Version 1.03295; Takumi Information Technology Inc.). The selected mice were divided into 5 to 7 groups of 7 to 12 mice using the “completely randomization design by the single variable” program (Analytical program version 1.0.7), with body weight on the testing day. After grouping, p values for Bartlett's test and ANOVA across all groups were greater than 0.2, indicating no significant difference in this parameter among the groups.
# The required amount of each compound was weighed and put into a glass homogenizer. The required amount of 0.5% MC (methyl cellulose) solution was added, and each compound was suspended to give a 10 mg/kg dosing suspension.
# The required amount of donepezil was weighed and put into a glass homogenizer. The required amount of 0.5% MC solution was added, and donepezil was suspended to give a suspension at concentration of 1 mg/mL (10 mg/kg dosing suspension).
# (§4) The required amount of scopolamine and MK801 were weighed, and saline was added to it to give 0.3 mg/mL and 0.015 mg/mL solution, respectively.
# (§5) 90 Min before the test, the mice were orally administered each compound, donepezil, and vehicle (0.5% methyl cellulose, 10 mL/kg). After 60 min, memory impairment was induced by administering scopolamine (0.6 mg/kg, s.c.) with (co-administration) or without (mono-administration) MK801 (0.03 mg/kg, s.c.). The control group received saline (2 mL/kg, s.c.) rather than scopolamine and MK801.
# (§6) The Y-maze used herein is a three-arm maze with equal angles between all arms. The mazefloor and walls were constructed from black acrylic resin. The mice were initially placed within one arm, and the sequence and number of arm entries were recorded manually for each mouse over an 8-min period.
# (§7) Data were processed and analyzed with Microsoft® Office Excel 2003. The alternation behavior was defined as entries into all three arms on consecutive occasions. The percent alternation behavior in each animal was calculated using the following formula, and rounded to one decimal place.
# (§8) Alternation behavior(%)=[actual alternation/(total arm entries−2)]×100
# (§9) Restoration ratio of alternation behavior (%) in each animal was calculated using the following formula, and rounded to one decimal place.
# (§10) Restoration ratio of alternation behavior in each animal (%)=y Alternation behavior in each animal (%)=x Mean of alternation behavior in vehicle-treated group (group No. 1) (%)=A Mean of alternation behavior in scopolamine-treated group (group No. 2) (%)=B
# (§11) Data were expressed as the mean of the percent alternation behavior, the number of total arm entries and the restoration ratio of alternation behavior.
# (§12) Values of Y-maze tests are expressed as mean of alternation behavior (n=7−12).
# (§13) Alternation behaviors in the scopolamine-treated groups were compared to those in the control groups using Wilcoxon rank sum test (Stat preclinical; Version 1.03295; Takumi Information Technology Inc.) with a two-sided significance level of 0.05.
# Restoration of alternation behavior was analyzed using Stat Preclinica. Alternation behaviors in the Donepezil (10 mg/kg, p.o.)-treated group were compared to those in the co-administrated groups of test compounds with donepezil (10 mg/kg, p.o.) using non-parametric Dunnett multiple comparison test (Analytical program version 1.0.2) with a two-sided significance level of 0.05.
# [2] = system: scopolamine-induced cognitive impairment; experiment: Example 5: Y-maze test, scopolamine-induced cognitive impairment, single-agent administration (Table 101); format: in vivo, ddY mouse; conditions: p.o., scopolamine-treated, # = P<0.05 vs scopolamine group
# Excerpt: as §1, §2, §3
# The required amount of each compound was weighed and put into a glass homogenizer. […]
# as §4, §5, §6, §7, §8, §9, §10, §11, §12, §13
# Restoration of alternation behavior was analyzed using Stat Preclinica. Alternation behaviors in the vehicle-treated group were compared to those in the test substance-treated groups using non-parametric Dunnett multiple comparison test (Analytical program version 1.0.2) with a two-sided significance level of 0.05.
# [3] = target: T1, 5-HT4 receptor (Cavia porcellus, UniProt O70528); experiment: Test Example 1: Serotonin 4 (5-HT4) receptor binding assay, [3H]-GR113808, guinea pig striatum membranes (Table 96); conditions: Guinea pig 5-HT4 receptor binding assay, [3H]-GR113808, striatum membranes; mean value of each group
# T1 construct: striatum was isolated which was cryopreserved at −80° C. until use; from tissue; host or cells: guinea pig (Slc-Hartley) striatum membranes
# Experimental: The 5-HT4 receptor binding assay and preparations of receptor membrane preparations herein were carried out according to a method of Grossman et al. [see, British J. Pharmacol., (1993) 109, 618].
# Slc-Hartley guinea pigs (body weight 300 g to 400 g) were decapitated to remove brain rapidly, and striatum was isolated which was cryopreserved at −80° C. until use. To the obtained tissues were added fifteen fold of Hepes buffer (50 mM, pH 7.4, 4° C.), and the mixture was homogenized by Teflon (trademark) homogenizer and centrifuged at 48,000×g (4° C.) for 15 minutes. To the resulting precipitate was added Hepes buffer (1 ml) to 30 mg by wet weight of tissues, and the mixture was suspended to give receptor membrane preparations.
# To an assay tube were added 0.1 nM [^3H]-GR113808 {chemical name: [1-[2-(methylsulfonylamino)ethyl]-4-piperidinyl]methyl 1-methylindole-3-carboxylate}, receptor membrane preparations, and Hepes buffer (50 mM, pH 7.4, 4° C., 1 ml) containing test compounds or 30 μM serotonin; and the mixture was incubated at 37° C. for 30 minutes. On quenching the reaction, the mixture was rapidly filtered on whatman GF/B filter, which was presoaked in 0.1% polyethyleneimine for 1 hour, by using Brandel cell Harvester, and washed with ice-cooled 50 mM Tris-HCl (pH 7.7, 4 ml) three times. To the filter after filtration was added a liquid scintillator (Ecoscint), and then a radioactivity was determined by a liquid scintillation counter.
# 50% Inhibition concentrations (IC50) were determined from inhibition rates of test compounds to specific bindings which were obtained by subtracting nonspecific bindings from total binding amounts of [^3H]-GR113808.
# (§14) In the following table, the compounds used in the test are shown in numbers which correspond to the Example numbers above where the preparations of the compounds are described.
# [4] = target: T2, human 5-HT4b receptor (Homo sapiens, UniProt Q13639); experiment: Test Example 2: Serotonin 4 (5-HT4) receptor agonist activity assay, cAMP HTRF in CHO cells (Table 97); format: cell-based; conditions: cAMP in CHO cells expressing human 5-HT4b receptor, mean value
# T2 construct: expressed in transfected cells; host or cells: CHO cells (G418 selection)
# Experimental: The cAMP measurement test used herein was carried out by using CISBIO HTRF (trademark) cAMP Hirange kit according to the manufacturer's instructions attached therewith.
# CHO cells expressing human 5-HT4b receptor were incubated in Medium 1 [DMEM/1% NEAA, 1% penicillin/streptomycin (P/S), 0.2 mg/mL GENETICIN (G418), 10% FBS] at 37° C. under 5% CO2 condition. Then, the cells were put into Medium 2 (DMEM/10000 cut FBS, G-418, P/S, NEAA) for 1 to 2 hours, and collected by treating with trypsin containing EDTA. The collected cells were suspended in Assay Buffer 1 [100 mM Hanks/HEPES buffer (pH 7.4)], the suspended cells were mixed with the testing compound on 384-well plates, and the cells were incubated at 31° C. for 15 minutes. To the cells were added cAMP-cryptate solution and cAMP-d2 solution, and they were incubated at room temperature for 1 hour. Then, time-resolved fluorescence was measured by En Vision (excitation wavelength: 330 nm, fluorescence wavelength: 620/665 nm). An intrinsic activity of the compound [IA (%)] and a concentration showing 50% of IA [EC50 (nM)] were calculated from the obtained results. In particular, the intrinsic activity (IA) was calculated on the basis of the maximal activity of 5-HT (measured from 10^−11 M to 10^−7 M) defined as 100%.
# as §14
# [5] = animal experiment using rats; cited from earlier work
# [6] = phase II clinical trial with AD patients; cited from earlier work
# T2 sequence (Q13639 whole entry): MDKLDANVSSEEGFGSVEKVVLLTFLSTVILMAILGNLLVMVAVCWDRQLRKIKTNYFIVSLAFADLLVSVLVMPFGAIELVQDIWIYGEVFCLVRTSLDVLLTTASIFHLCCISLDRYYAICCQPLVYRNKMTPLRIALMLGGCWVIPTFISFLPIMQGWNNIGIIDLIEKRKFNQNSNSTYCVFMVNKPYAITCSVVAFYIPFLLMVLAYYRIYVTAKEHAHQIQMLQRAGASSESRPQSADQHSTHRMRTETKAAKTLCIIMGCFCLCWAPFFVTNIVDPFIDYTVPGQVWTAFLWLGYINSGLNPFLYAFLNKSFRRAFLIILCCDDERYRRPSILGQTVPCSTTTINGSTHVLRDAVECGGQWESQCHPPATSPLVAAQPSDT
# T1 sequence (O70528 whole entry): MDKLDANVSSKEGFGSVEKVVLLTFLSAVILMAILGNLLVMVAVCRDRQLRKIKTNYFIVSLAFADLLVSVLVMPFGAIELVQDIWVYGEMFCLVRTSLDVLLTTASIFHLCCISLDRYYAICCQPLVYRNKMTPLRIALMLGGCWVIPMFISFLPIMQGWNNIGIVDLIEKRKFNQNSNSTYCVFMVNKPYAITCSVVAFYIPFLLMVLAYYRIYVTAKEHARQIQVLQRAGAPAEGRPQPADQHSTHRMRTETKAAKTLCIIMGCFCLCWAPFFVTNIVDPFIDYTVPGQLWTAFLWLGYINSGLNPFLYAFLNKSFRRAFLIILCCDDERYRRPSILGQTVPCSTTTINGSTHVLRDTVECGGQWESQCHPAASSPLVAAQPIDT
compound,measurement,setting,value
"COc1cc2c(cc1OC)C(=O)C(CC1CCN(Cc3ccccc3)CC1)C2 (stereo not drawn) [Donepezil, donepezil, reference compound]",Alternation behavior (%),[1],51.5^# % and 49.9^# %
"CCc1nn(-c2noc(C3CCN(CCC4CCOCC4)CC3)n2)c2cc(F)ccc12 [Example 137, 3-ethyl-6-fluoro-1-(5-{1-[2-(tetrahydro-2H-pyran-4-yl)ethyl]piperidin-4-yl}-1,2,4-oxadiazol-3-yl)-1H-indazole]",Alternation behavior (%),[2]; compound 3 mg/kg,49.3%
same,Alternation behavior (%),[2]; compound 10 mg/kg,62.6^# %
same,IC50,[3],< 20 nM
same,Emax,"[4]; 0.25 h, intrinsic activity, maximal activity of 5-HT defined as 100%, read-out: IA (%)",66%
same,EC50,[4]; concentration showing 50% of IA,8.6 nM
"CCc1nn(-c2noc(C3CCN(CC4CN(C(=O)OC)C4)CC3)n2)c2c(F)cccc12 [Example 218, methyl 3-({4-[3-(3-ethyl-7-fluoro-1H-indazol-1-yl)-1,2,4-oxadiazol-5-yl]piperidin-1-yl}methyl)azetidine-1-carboxylate]",Alternation behavior (%),[2]; compound 1 mg/kg,59.9%
same,Alternation behavior (%),[2]; compound 3 mg/kg,53%
same,Alternation behavior (%),[2]; compound 10 mg/kg,61.3%
CC(C)n1c(=O)c(C(=O)NCCCN2CCCCC2)c(O)c2ccsc21 [PRX-03140],improving cognitive function,[5],efficacious for improving cognitive function
same,lowering Aβ,[5],lowering Aβ
same,effect for improving cognitive function,[6],shows the effect for improving cognitive function
